Experimental data: ChEMBL document CHEMBL1137790, “Octahydropyrrolo[3,4-c]pyrrole: a diamine scaffold for construction of either alpha4beta2 or alpha7-selective nicotinic acetylcholine receptor (nAChR) ligands. Substitutions that switch subtype selectivity” (J Med Chem, 2009)

Tests used:
Rattus norvegicus = species on record: Rattus norvegicus; test: Selectivity ratio of Ki for alpha7 nicotinic acetylcholine receptor to Ki for alpha4beta2 nicotinic acetylcholine receptor in rat brain minus cerebellum membrane; assay type: tissue-based
[1] = molecular target: Neuronal acetylcholine receptor; alpha4/beta2 (Rattus norvegicus, UniProt P09483+P12390); test: Displacement of [3H]cytisine from alpha4beta2 nicotinic acetylcholine receptor in rat brain minus cerebellum membrane; assay type: tissue-based
Neuronal acetylcholine receptor; alpha4/beta2 (Rattus norvegicus, UniProt P09483+P12390), sequence (P09483 whole entry): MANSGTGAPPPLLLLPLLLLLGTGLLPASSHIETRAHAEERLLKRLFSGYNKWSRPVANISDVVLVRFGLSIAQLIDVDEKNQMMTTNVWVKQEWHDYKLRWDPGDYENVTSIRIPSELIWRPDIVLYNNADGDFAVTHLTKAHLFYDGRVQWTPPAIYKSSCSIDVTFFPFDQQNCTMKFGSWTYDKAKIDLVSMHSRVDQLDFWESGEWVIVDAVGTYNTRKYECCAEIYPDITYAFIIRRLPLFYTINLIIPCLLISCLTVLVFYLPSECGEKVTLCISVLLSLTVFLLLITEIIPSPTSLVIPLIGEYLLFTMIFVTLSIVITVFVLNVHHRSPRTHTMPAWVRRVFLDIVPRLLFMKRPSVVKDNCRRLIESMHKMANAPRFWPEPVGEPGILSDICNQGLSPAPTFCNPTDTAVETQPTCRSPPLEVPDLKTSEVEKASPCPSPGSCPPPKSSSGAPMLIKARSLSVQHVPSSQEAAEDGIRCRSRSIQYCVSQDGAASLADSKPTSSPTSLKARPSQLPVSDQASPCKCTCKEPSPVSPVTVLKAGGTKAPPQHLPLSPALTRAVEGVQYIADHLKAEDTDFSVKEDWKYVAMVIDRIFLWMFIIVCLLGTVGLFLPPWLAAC
Neuronal acetylcholine receptor; alpha4/beta2 (Rattus norvegicus, UniProt P09483+P12390), sequence (P12390 whole entry): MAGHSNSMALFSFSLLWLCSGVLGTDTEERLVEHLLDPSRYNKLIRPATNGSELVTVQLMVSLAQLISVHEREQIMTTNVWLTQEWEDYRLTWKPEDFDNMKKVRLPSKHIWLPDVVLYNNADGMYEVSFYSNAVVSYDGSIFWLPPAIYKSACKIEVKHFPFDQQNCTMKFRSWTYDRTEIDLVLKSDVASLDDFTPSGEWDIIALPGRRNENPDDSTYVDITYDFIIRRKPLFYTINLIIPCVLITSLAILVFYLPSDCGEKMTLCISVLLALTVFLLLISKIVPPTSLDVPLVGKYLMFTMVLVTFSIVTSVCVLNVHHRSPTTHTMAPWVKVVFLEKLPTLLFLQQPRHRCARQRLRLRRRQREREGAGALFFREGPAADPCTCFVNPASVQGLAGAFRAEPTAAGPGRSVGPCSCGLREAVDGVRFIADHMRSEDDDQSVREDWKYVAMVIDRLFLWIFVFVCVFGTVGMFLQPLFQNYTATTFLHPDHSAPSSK

[2] = molecular target: Neuronal acetylcholine receptor subunit alpha-7 (Rattus norvegicus, UniProt Q05941); test: Displacement of [3H]A585539 from alpha7 nicotinic acetylcholine receptor in rat brain minus cerebellum membrane; assay type: tissue-based
Neuronal acetylcholine receptor subunit alpha-7 (Rattus norvegicus, UniProt Q05941), sequence (Q05941 whole entry): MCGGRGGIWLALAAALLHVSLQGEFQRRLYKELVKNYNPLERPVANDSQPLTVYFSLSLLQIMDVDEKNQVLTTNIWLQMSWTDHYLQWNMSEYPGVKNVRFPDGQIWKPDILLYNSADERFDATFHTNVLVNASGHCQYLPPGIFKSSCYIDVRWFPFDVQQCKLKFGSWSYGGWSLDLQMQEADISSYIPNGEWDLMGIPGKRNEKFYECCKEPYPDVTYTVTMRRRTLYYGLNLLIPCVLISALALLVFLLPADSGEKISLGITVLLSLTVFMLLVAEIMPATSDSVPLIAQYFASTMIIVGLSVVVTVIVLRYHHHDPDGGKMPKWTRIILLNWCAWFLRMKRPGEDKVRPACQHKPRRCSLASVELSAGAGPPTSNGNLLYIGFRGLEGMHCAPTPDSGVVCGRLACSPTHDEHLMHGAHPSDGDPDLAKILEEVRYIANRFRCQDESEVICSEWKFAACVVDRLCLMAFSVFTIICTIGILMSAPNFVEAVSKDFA

[3] = molecular target: T1, Neuronal acetylcholine receptor subunit alpha-7 (Homo sapiens, UniProt P36544); test: Agonist activity at human recombinant alpha7 nicotinic acetylcholine receptor expressed in xenopus laevis oocytes by parallel oocyte electrophysiological assay; assay type: functional, cell-based
T1 sequence (P36544 whole entry): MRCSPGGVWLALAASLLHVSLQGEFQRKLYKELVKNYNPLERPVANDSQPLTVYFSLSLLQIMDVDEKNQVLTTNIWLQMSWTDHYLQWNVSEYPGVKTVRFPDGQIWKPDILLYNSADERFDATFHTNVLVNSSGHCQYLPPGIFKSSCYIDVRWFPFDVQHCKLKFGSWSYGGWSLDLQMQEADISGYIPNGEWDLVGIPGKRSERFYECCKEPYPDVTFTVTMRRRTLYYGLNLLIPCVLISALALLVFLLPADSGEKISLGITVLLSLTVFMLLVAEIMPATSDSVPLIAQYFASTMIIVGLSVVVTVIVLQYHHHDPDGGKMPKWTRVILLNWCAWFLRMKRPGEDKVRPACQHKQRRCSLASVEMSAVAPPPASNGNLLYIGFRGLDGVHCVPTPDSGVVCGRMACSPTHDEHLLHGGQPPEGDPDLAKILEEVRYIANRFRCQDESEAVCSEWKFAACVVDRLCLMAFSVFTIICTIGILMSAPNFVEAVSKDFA

[4] = molecular target: T2, Neuronal acetylcholine receptor; alpha4/beta2 (Homo sapiens, UniProt P17787+P43681); test: Agonist activity at human recombinant alpha4beta2 nicotinic acetylcholine receptor expressed in HEK293 cells assessed as changes in intracellular calcium level by FLIPR; assay type: functional, cell-based
T2 sequence (P17787 whole entry): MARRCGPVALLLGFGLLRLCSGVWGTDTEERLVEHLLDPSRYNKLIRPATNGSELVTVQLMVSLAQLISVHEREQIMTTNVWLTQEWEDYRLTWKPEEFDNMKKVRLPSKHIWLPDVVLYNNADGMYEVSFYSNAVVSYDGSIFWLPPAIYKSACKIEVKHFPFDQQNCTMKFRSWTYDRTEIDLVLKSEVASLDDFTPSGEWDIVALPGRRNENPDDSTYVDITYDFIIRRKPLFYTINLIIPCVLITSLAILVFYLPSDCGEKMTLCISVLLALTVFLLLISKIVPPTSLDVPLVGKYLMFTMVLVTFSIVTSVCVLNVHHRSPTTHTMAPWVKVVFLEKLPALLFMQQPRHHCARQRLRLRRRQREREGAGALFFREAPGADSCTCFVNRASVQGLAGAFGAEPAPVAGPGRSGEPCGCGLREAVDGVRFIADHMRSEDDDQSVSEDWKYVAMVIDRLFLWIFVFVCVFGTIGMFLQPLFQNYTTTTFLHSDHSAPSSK
T2 sequence (P43681 whole entry): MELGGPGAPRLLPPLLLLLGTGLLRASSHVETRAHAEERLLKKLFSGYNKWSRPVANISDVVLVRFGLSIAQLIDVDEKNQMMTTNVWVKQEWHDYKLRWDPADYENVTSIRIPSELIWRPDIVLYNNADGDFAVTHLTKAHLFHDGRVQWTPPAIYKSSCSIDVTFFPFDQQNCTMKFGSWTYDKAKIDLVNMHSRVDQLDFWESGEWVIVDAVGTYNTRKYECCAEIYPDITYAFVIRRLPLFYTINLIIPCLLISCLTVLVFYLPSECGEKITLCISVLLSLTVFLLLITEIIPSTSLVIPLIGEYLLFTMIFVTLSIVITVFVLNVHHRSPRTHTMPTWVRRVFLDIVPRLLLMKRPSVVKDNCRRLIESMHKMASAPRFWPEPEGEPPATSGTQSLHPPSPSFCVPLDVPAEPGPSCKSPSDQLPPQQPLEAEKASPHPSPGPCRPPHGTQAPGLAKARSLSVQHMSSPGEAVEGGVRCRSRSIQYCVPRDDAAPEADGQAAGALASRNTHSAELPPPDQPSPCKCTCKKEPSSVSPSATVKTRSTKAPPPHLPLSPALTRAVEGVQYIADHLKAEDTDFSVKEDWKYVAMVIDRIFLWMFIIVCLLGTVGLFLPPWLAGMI

[5] = molecular target: T2, Neuronal acetylcholine receptor; alpha4/beta2; test: Agonist activity at human recombinant alpha4beta2 nicotinic acetylcholine receptor expressed in HEK293 cells assessed as changes in intracellular calcium level at 100 uM by FLIPR relative to nicotine; assay type: functional, cell-based
[6] = molecular target: T1, Neuronal acetylcholine receptor subunit alpha-7; test: Agonist activity at human recombinant alpha7 nicotinic acetylcholine receptor expressed in xenopus laevis oocytes at 100 uM by parallel oocyte electrophysiological assay relative to acetylcholine; assay type: functional, cell-based

SMILES | Ratio Ki (Rattus norvegicus) | Ki [1] [nM] | Ki [2] [nM] | EC50 [3] [nM] | EC50 [4] [nM] | Activity [5] [%] | Activity [6] [%]
CN1C[C@@H]2CN(c3ccc(-c4ccccc4)nc3)C[C@@H]2C1 | 0.0003 | 28000 | 9.6 |  |  |  | 
c1cncc(N2C[C@H]3CNC[C@H]3C2)c1 | 420 | 0.12 | 51 | 4470 | 40 | 146 | 129
CN1C[C@@H]2CN(c3ccc(-c4ccccc4)nn3)C[C@@H]2C1 | > 9200 | > 100000 | 10.8 | 4260 | > 100000 | < 10 | 52
c1ncc(N2C[C@H]3CNC[C@H]3C2)cc1N1CCOCC1 | > 210 | 47 | > 10000 |  |  |  | 
CN1C[C@@H]2CN(c3ccc(-c4cccc(O)c4)nn3)C[C@@H]2C1 | 2660 | 21000 | 7.9 |  |  |  | 
COc1cncc(N2C[C@H]3CNC[C@H]3C2)c1 | 2900 | 0.081 | 240 |  |  |  | 
CN1C[C@@H]2CN(c3ccc(-c4ccccc4)cn3)C[C@@H]2C1 | > 6000 | > 100000 | 17 |  |  |  | 
CN1C[C@@H]2CN(c3cncc(-c4ccccc4)c3)C[C@@H]2C1 | > 190 | 51 | > 10000 |  |  |  | 
c1ccc(-c2ccc(N3C[C@H]4CNC[C@H]4C3)nc2)cc1 | > 3300 | > 100000 | 30 |  |  |  | 
CCOc1cncc(N2C[C@H]3CNC[C@H]3C2)c1 | 41000 | 0.035 | 1440 | > 100000 | 370 | 118 | 37
c1cc(N2C[C@H]3CNC[C@H]3C2)ccn1 |  | > 10000 | > 10000 |  |  |  | 
c1ccc(N2C[C@H]3CNC[C@H]3C2)nc1 | > 38 | 260 | > 10000 |  |  |  | 
C[N+]1(C)C[C@H]2CN(c3ccc(-c4ccccc4)nn3)C[C@H]2C1 | > 1600 | > 10000 | 5.98 |  |  |  | 
Oc1cncc(N2C[C@H]3CNC[C@H]3C2)c1 | > 13000 | 0.75 | > 10000 |  |  |  | 
Brc1cncc(N2C[C@H]3CNC[C@H]3C2)c1 | 1100 | 0.06 | 66 |  |  |  | 
Cc1cccc(-c2ccc(N3C[C@H]4CN(C)C[C@H]4C3)nn2)c1 | > 22000 | > 100000 | 4.42 |  |  |  | 
c1ccc(-c2ccc(N3C[C@H]4CNC[C@H]4C3)cc2)cc1 | > 350 | > 10000 | 28 |  |  |  | 
CN1C[C@@H]2CN(c3ccc(Cl)nc3)C[C@@H]2C1 | > 260 | 38 | > 10000 |  |  |  | 
Cc1cc(C)cc(-c2ccc(N3C[C@H]4CN(C)C[C@H]4C3)nn2)c1 |  | > 100000 | > 10000 |  |  |  | 
CN1C[C@@H]2CN(c3ccc(-c4ccccc4)cc3)C[C@@H]2C1 | > 8300 | > 100000 | 12 |  |  |  | 

SMILES | Ratio Ki (Rattus norvegicus) | Ki [1] [nM] | Ki [2] [nM] | EC50 [3] [nM] | EC50 [4] [nM] | Activity [5] [%] | Activity [6] [%]
CC(C)Oc1cncc(N2C[C@H]3CNC[C@H]3C2)c1 | > 200000 | 0.051 | > 10000 |  |  |  | 
CN1C[C@@H]2CN(c3ccc(-c4ccc(O)cc4)nn3)C[C@@H]2C1 | > 1800 | > 10000 | 5.3 |  |  |  | 
CN1C[C@@H]2CN(c3ccc(-c4ccc5[nH]ccc5c4)nn3)C[C@@H]2C1 | > 400000 | > 100000 | 0.24 | 320 | > 100000 | < 10 | 87
COc1ccc(-c2ccc(N3C[C@H]4CN(C)C[C@H]4C3)nn2)cc1 | > 4500 | > 100000 | 22 |  |  |  | 
CN1C[C@@H]2CN(c3ccc(-c4cccc(-c5ccccc5)c4)nc3)C[C@@H]2C1 | 220 | 9800 | 44 |  |  |  | 
Cc1cccc(-c2ccc(N3C[C@H]4CN(C)C[C@H]4C3)cn2)c1 | 112 | 750 | 6.7 |  |  |  | 
COc1cccc(-c2ccc(N3C[C@H]4CN(C)C[C@H]4C3)cn2)c1 | > 2000 | > 100000 | 5 |  |  |  | 
c1ccc(-c2cncc(N3C[C@H]4CNC[C@H]4C3)c2)cc1 | 28000 | 0.16 | 4560 | > 100000 | > 100000 | < 10 | < 10
Cc1ccccc1-c1ccc(N2C[C@H]3CN(C)C[C@H]3C2)nn1 | > 14 | > 10000 | 690 |  |  |  | 
CN1C[C@@H]2CN(c3cccnc3)C[C@@H]2C1 | 61 | 26 | 1590 |  |  |  | 
CN1C[C@@H]2CN(c3ccc(-c4cccc([N+](=O)[O-])c4)nc3)C[C@@H]2C1 | 87 | 2600 | 30 |  |  |  | 
Cc1ccc(-c2ccc(N3C[C@H]4CN(C)C[C@H]4C3)nn2)cc1 | > 8600 | > 100000 | 11.6 |  |  |  | 
c1ccc(COc2cncc(N3C[C@H]4CNC[C@H]4C3)c2)cc1 | > 170000 | 0.058 | > 10000 |  |  |  | 
Clc1ccc(N2C[C@H]3CNC[C@H]3C2)cn1 | 900 | 0.2 | 180 |  |  |  | 
c1ccc(-c2ccc(N3C[C@H]4CNC[C@H]4C3)cn2)cc1 | 0.09 | 96 | 8.4 |  |  |  | 
CCN1C[C@@H]2CN(c3ccc(-c4ccccc4)nn3)C[C@@H]2C1 | > 300 | > 100000 | 330 |  |  |  | 
CCCOc1cncc(N2C[C@H]3CNC[C@H]3C2)c1 | > 240000 | 0.041 | > 10000 |  |  |  | 
c1ccc(-c2ccc(N3C[C@H]4CNC[C@H]4C3)nn2)cc1 | 300 | 5320 | 17.5 | 1150 | > 100000 | < 10 | 29
Brc1ccc(N2C[C@H]3CNC[C@H]3C2)cn1 | 1000 | 0.28 | 290 |  |  |  | 
C[N+]1(C)C[C@H]2CN(c3ccc(Cl)nc3)C[C@H]2C1 | 1.6 | 210 | 340 |  |  |  | 
